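How tested: cells in 96-well plates exposed to compound for 48 hours at five concentrations. Definition used: TGI = concentration required for complete inhibition of growth.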
Experiments:
Test in all cases: inhibition of tumour cell growth, NCI panel, 48 h
CAKI-1 renal = test system: CAKI-1 renal
U251 CNS = test system: U251 CNS
SNB-19 CNS = test system: SNB-19 CNS
HOP-92 NSCLC = test system: HOP-92 NSCLC
MCF7 breast = test system: MCF7 breast
HT29 colon = test system: HT29 colon
OVCAR-8 ovarian = test system: OVCAR-8 ovarian
HCT-15 colon = test system: HCT-15 colon
HCC-2998 colon = test system: HCC-2998 colon
UO-31 renal = test system: UO-31 renal
SK-MEL-28 melanoma = test system: SK-MEL-28 melanoma
K-562 leukemia = test system: K-562 leukemia
BT-549 breast = test system: BT-549 breast
SN12C renal = test system: SN12C renal
TK-10 renal = test system: TK-10 renal
SF-539 CNS = test system: SF-539 CNS
SR leukemia = test system: SR leukemia
SNB-75 CNS = test system: SNB-75 CNS
HCT-116 colon = test system: HCT-116 colon
A498 renal = test system: A498 renal

Q: How did the TGI (CAKI-1 renal) turn out when `CCOC(=O)c1ccc(N2C(=S)N(C(=O)c3ccccc3)C(=Nc3ccccc3)C2=Nc2ccccc2)cc1` was run?
A: The TGI was over 100 µM.

Q: And the TGI (U251 CNS)?
A: The TGI was over 100 µM.

Q: And the TGI (SNB-19 CNS)?
A: The TGI was over 100 µM.

Q: And the TGI (HOP-92 NSCLC)?
A: Its TGI is 78.7 µM.

Q: And the TGI (MCF7 breast)?
A: Its TGI is over 100 µM.

Q: What about the TGI (HT29 colon) of the same molecule?
A: The TGI was over 100 µM.

Q: What about the TGI (OVCAR-8 ovarian) of the same molecule?
A: The TGI was over 100 µM.

Q: And the TGI (HCT-15 colon)?
A: Its TGI is over 100 µM.

Q: What about the TGI (HCC-2998 colon) of the same molecule?
A: Its TGI is over 100 µM.

Q: And the TGI (UO-31 renal)?
A: Its TGI is over 100 µM.

Q: And the TGI (SK-MEL-28 melanoma)?
A: The TGI was over 100 µM.

Q: And the TGI (K-562 leukemia)?
A: Its TGI is over 100 µM.

Q: And the TGI (BT-549 breast)?
A: The TGI was over 100 µM.

Q: What about the TGI (SN12C renal) of the same molecule?
A: The TGI was over 100 µM.

Q: And the TGI (TK-10 renal)?
A: Its TGI is over 100 µM.

Q: What about the TGI (SF-539 CNS) of the same molecule?
A: Its TGI is over 100 µM.

Q: What about the TGI (SR leukemia) of the same molecule?
A: The TGI was over 100 µM.

Q: And the TGI (SNB-75 CNS)?
A: Its TGI is 74.6 µM.

Q: Which results are given for `NC(=O)NNC(=O)c1nc[nH]c1[N+](=O)[O-]`?
A: TGI (CAKI-1 renal): > 100 µM; TGI (U251 CNS): > 100 µM; TGI (MCF7 breast): > 100 µM; TGI (HT29 colon): > 100 µM; TGI (OVCAR-8 ovarian): > 100 µM; TGI (HCT-15 colon): > 100 µM; TGI (HCT-116 colon): > 100 µM; TGI (HCC-2998 colon): > 100 µM; TGI (UO-31 renal): > 100 µM; TGI (SK-MEL-28 melanoma): > 100 µM; TGI (K-562 leukemia): > 100 µM; TGI (BT-549 breast): > 100 µM; TGI (SN12C renal): > 100 µM; TGI (A498 renal): > 100 µM; TGI (TK-10 renal): > 100 µM; TGI (SF-539 CNS): > 100 µM; TGI (SNB-75 CNS): > 100 µM

Q: Which results are given for `O=C1c2ccccc2-c2nc(-c3cccc([N+](=O)[O-])c3)nnc21`?
A: TGI (CAKI-1 renal): 12.6 µM; TGI (U251 CNS): > 100 µM; TGI (SNB-19 CNS): > 100 µM; TGI (HOP-92 NSCLC): > 100 µM; TGI (MCF7 breast): > 100 µM; TGI (HT29 colon): 5.43 µM; TGI (OVCAR-8 ovarian): 86.7 µM; TGI (HCT-15 colon): 59.9 µM; TGI (HCT-116 colon): > 100 µM; TGI (UO-31 renal): 42.2 µM; TGI (K-562 leukemia): > 100 µM; TGI (BT-549 breast): 36.7 µM; TGI (SN12C renal): 45.7 µM; TGI (TK-10 renal): 39.5 µM; TGI (SF-539 CNS): > 100 µM; TGI (SR leukemia): > 100 µM; TGI (SNB-75 CNS): 59 µM

Q: `NCCN=C(Nc1ccccc1)Nc1ccccc1` was tested. Which TGI (CAKI-1 renal) did it give?
A: Its TGI is over 100 µM.

Q: And the TGI (U251 CNS)?
A: Its TGI is over 100 µM.

Q: And the TGI (SNB-19 CNS)?
A: Its TGI is over 100 µM.

Q: And the TGI (MCF7 breast)?
A: The TGI was over 100 µM.

Q: And the TGI (HT29 colon)?
A: Its TGI is over 100 µM.

Q: And the TGI (OVCAR-8 ovarian)?
A: Its TGI is over 100 µM.

Q: What about the TGI (HCT-15 colon) of the same molecule?
A: The TGI was over 100 µM.

Q: What about the TGI (HCT-116 colon) of the same molecule?
A: Its TGI is over 100 µM.

Q: What about the TGI (HCC-2998 colon) of the same molecule?
A: Its TGI is over 100 µM.

Q: What about the TGI (UO-31 renal) of the same molecule?
A: The TGI was over 100 µM.

Q: What about the TGI (SK-MEL-28 melanoma) of the same molecule?
A: The TGI was over 100 µM.

Q: What about the TGI (K-562 leukemia) of the same molecule?
A: Its TGI is over 100 µM.

Q: And the TGI (BT-549 breast)?
A: Its TGI is over 100 µM.

Q: And the TGI (SN12C renal)?
A: Its TGI is over 100 µM.

Q: What about the TGI (TK-10 renal) of the same molecule?
A: The TGI was over 100 µM.

Q: And the TGI (SF-539 CNS)?
A: Its TGI is over 100 µM.

Q: What about the TGI (SR leukemia) of the same molecule?
A: Its TGI is over 100 µM.

Q: And the TGI (SNB-75 CNS)?
A: Its TGI is over 100 µM.

Q: What does the source list for `CCCCCC(=O)NC(=S)Nc1nn[nH]n1`?
A: TGI (CAKI-1 renal): > 100 µM; TGI (U251 CNS): > 100 µM; TGI (SNB-19 CNS): > 100 µM; TGI (HOP-92 NSCLC): > 100 µM; TGI (MCF7 breast): > 100 µM; TGI (HCT-15 colon): > 100 µM; TGI (HCT-116 colon): > 100 µM; TGI (HCC-2998 colon): > 100 µM; TGI (UO-31 renal): > 100 µM; TGI (SK-MEL-28 melanoma): > 100 µM; TGI (K-562 leukemia): > 100 µM; TGI (SN12C renal): > 100 µM; TGI (A498 renal): > 100 µM; TGI (TK-10 renal): > 100 µM; TGI (SF-539 CNS): > 100 µM; TGI (SR leukemia): > 100 µM; TGI (SNB-75 CNS): > 100 µM
